Assays:
Assay in all cases: relative viability (nuclei count vs DMSO), 5 days (fraction); higher = more cells survive
BI-D1870 = compound: CC(C)CCN1c2nc(Nc3cc(F)c(O)c(F)c3)ncc2N(C)C(=O)C1C [BI-D1870]
How it was run: (§1)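 Only plates meeting two conditions passed: control CV below 25% and at least one doubling. Lung cancer cell lines, kept overnight at 37 °C in 1536-well plates, were pinned with five library-drug doses (not always all listed) √10 apart on vehicle-anchored plates and grown 5 days without medium change. A one-step fix, permeabilisation and Hoechst stain preceded 4× imaging and MetaXpress nuclear counting. Viability equals treated-well nuclei divided by vehicle-well nuclei, as the median over plates.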

Zebularine = compound: O=c1ncccn1[C@@H]1O[C@H](CO)[C@@H](O)[C@H]1O [Zebularine]
How it was run: as §1

Zebularine + Bortezomib = compound: O=c1ncccn1[C@@H]1O[C@H](CO)[C@@H](O)[C@H]1O [Zebularine] + CC(C)C[C@H](NC(=O)[C@H](Cc1ccccc1)NC(=O)c1cnccn1)B(O)O [Bortezomib] (partner 0.002 µM)
How it was run: (§2)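 Lung cancer cell lines were pin-tool dosed in 1536-well plates on the day after seeding, with either a lone drug or a fixed anchor-drug dose plus five library-drug doses (not always all listed) in √10 steps. Nuclei were counted on 4× images after 5 days. Relative viability is the ratio of treated-well to vehicle-well nuclei counts, with each value a median of duplicate plates.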

BI-D1870 + Alpelisib = compound: CC(C)CCN1c2nc(Nc3cc(F)c(O)c(F)c3)ncc2N(C)C(=O)C1C [BI-D1870] + Cc1nc(NC(=O)N2CCC[C@H]2C(N)=O)sc1-c1ccnc(C(C)(C)C(F)(F)F)c1 [Alpelisib] (partner 2 µM)
How it was run: as §2

Cell Line	relative viability (BI-D1870; 0.04 µM)	relative viability (BI-D1870; 0.1265 µM)	relative viability (BI-D1870; 0.4 µM)	relative viability (BI-D1870; 1.265 µM)	relative viability (BI-D1870; 4 µM)	relative viability (Zebularine; 1 µM)	relative viability (Zebularine; 3.162 µM)	relative viability (Zebularine; 10 µM)	relative viability (Zebularine; 31.62 µM)	relative viability (Zebularine; 100 µM)	relative viability (Zebularine + Bortezomib; first compound 1 µM)	relative viability (Zebularine + Bortezomib; first compound 3.162 µM)	relative viability (Zebularine + Bortezomib; first compound 10 µM)	relative viability (Zebularine + Bortezomib; first compound 31.62 µM)	relative viability (Zebularine + Bortezomib; first compound 100 µM)	relative viability (BI-D1870 + Alpelisib; first compound 0.04 µM)	relative viability (BI-D1870 + Alpelisib; first compound 0.1265 µM)	relative viability (BI-D1870 + Alpelisib; first compound 0.4 µM)	relative viability (BI-D1870 + Alpelisib; first compound 1.265 µM)	relative viability (BI-D1870 + Alpelisib; first compound 4 µM)
NCI-H1651	0.997	0.911	0.945	1.04	0.914	1.04	0.989	0.718	0.911	0.57	0.979	0.935	0.582	0.947	0.609	1.04	0.939	1	0.942	0.941
NCI-H1703	0.92	0.708	0.905	1.02	0.806	0.856	0.815	0.606	0.899	0.667	0.273	0.302	0.296	0.512	0.411	0.263	0.341	0.301	0.379	0.305
Calu-6	1.11	0.865	0.998	0.904	0.676	1.18	0.99	0.747	0.7	0.246	1.04	0.85	0.914	0.77	0.306	1	0.843	0.951	0.7	0.644
EBC-1	0.995	0.889	0.839	0.654	0.361	1.1	0.811	0.842	1.11	0.974	0.528	0.547	0.508	0.572	0.623	0.925	0.625	0.786	0.475	0.297
SW 1573	1.14	0.896	0.968	0.857	0.61	1.04	0.897	0.721	1.01	0.77	1.13	0.896	0.78	1.07	0.584	0.934	0.64	0.723	0.794	0.661
A-427	1.18	0.945	0.997	1.04	0.801	1.11	0.898	0.65	0.55	0.267	1.12	0.899	0.665	0.381	0.247	1.13	1.02	0.992	1.12	1.16
NCI-H2347	1.14	1.02	0.964	1.06	0.894	1.11	1.05	0.753	0.583	0.489	0.768	0.925	0.594	0.582	0.542	1.07	0.984	0.816	1.14	0.848
NCI-H1355	1.06	0.917	0.958	1.11	0.861	1.06	0.955	0.749	0.62	0.33	1.3	1.2	0.844	0.493	0.335	0.848	0.768	0.804	0.884	0.716
PC-3 [JPC-3]	1.05	1.02	0.962	1.1	0.951	1.07	1.01	0.711	0.868	0.76	0.912	0.772	0.464	0.729	0.591	1.07	0.971	1.03	1.13	1
NCI-H2228	0.999	0.82	0.845	1.21	0.702	1.17	1.08	0.782	0.8	0.486	1.17	0.924	0.46	0.837	0.354	0.669	0.568	0.876	0.602	0.35
HOP-62	1.18	1.01	0.965	1.03	0.949	1.11	0.911	0.564	0.287	0.213	0.593	0.741	0.547	0.201	0.143	1.21	1	1.02	1.05	1.2
HARA	1.03	0.905	0.932	1.27	0.804	1.09	1.13	–	1.06	0.897	1.14	1.11	–	1.09	0.86	0.981	0.75	0.842	1.02	0.747
NCI-H838	0.962	0.892	0.958	1.07	0.992	1.05	0.962	0.753	0.692	0.352	0.994	0.727	0.598	0.801	0.298	1.04	0.883	0.923	1.17	1.04
NCI-H1755	1.03	1.01	1.03	1.07	1.01	1.12	0.981	1.02	1.04	0.717	1.03	0.952	0.739	1.08	0.415	0.973	0.852	0.983	0.968	0.869
HCC-78	0.952	1	0.97	1.16	0.875	1.07	0.945	0.626	0.916	0.387	0.497	0.512	0.407	0.42	0.355	0.323	0.279	0.301	0.321	0.246
IA-LM	1.13	0.863	0.913	1.05	0.646	1.12	0.809	–	1.14	0.863	0.63	0.892	0.617	1.03	0.672	0.687	0.673	0.759	0.765	0.446

Cell Line	relative viability (BI-D1870; 0.04 µM)	relative viability (BI-D1870; 0.1265 µM)	relative viability (BI-D1870; 0.4 µM)	relative viability (BI-D1870; 1.265 µM)	relative viability (BI-D1870; 4 µM)	relative viability (Zebularine; 1 µM)	relative viability (Zebularine; 3.162 µM)	relative viability (Zebularine; 10 µM)	relative viability (Zebularine; 31.62 µM)	relative viability (Zebularine; 100 µM)	relative viability (Zebularine + Bortezomib; first compound 1 µM)	relative viability (Zebularine + Bortezomib; first compound 3.162 µM)	relative viability (Zebularine + Bortezomib; first compound 10 µM)	relative viability (Zebularine + Bortezomib; first compound 31.62 µM)	relative viability (Zebularine + Bortezomib; first compound 100 µM)	relative viability (BI-D1870 + Alpelisib; first compound 0.04 µM)	relative viability (BI-D1870 + Alpelisib; first compound 0.1265 µM)	relative viability (BI-D1870 + Alpelisib; first compound 0.4 µM)	relative viability (BI-D1870 + Alpelisib; first compound 1.265 µM)	relative viability (BI-D1870 + Alpelisib; first compound 4 µM)
NCI-H322M	0.964	0.907	0.82	0.728	0.748	0.98	0.928	0.784	0.888	0.673	1.19	1.29	1.06	1.17	0.824	0.887	0.79	0.741	0.891	0.765
NCI-H3122	1.03	0.927	0.951	1.02	0.903	1.03	0.987	0.875	1.01	1.04	1.04	0.991	1	1.05	1.08	0.721	0.643	0.724	0.852	0.749
COR-L23	1.12	0.945	1.09	1.13	0.83	1.07	1.05	0.484	0.504	0.177	0.928	1.13	0.363	0.318	0.251	0.978	0.731	0.875	0.722	0.449
NCI-H2087	1.13	0.977	1.15	1.21	0.78	1.04	0.949	0.747	0.894	0.381	0.977	0.747	0.512	0.662	0.321	1.15	1.05	1.09	1.23	0.877
LC-2-ad	1.08	0.957	1.02	1.01	0.868	1.02	0.937	0.653	0.719	0.355	1.09	0.76	0.521	0.605	0.148	0.962	0.836	0.849	0.855	0.701
NCI-H1915	1.09	0.921	0.969	0.988	0.763	1.04	0.932	0.821	1.08	1.03	1.11	0.913	0.433	1.09	0.97	1.03	1.07	1.03	1.06	1
NCI-H2023	1	0.846	0.88	0.988	0.701	1.17	1	0.724	0.613	0.287	1.08	0.932	0.749	0.646	0.273	0.696	0.552	0.592	0.634	0.552
COR-L 105	0.895	0.836	0.949	0.939	0.888	1.03	0.952	0.831	1.15	0.873	0.978	0.771	0.694	1.21	0.843	1.2	0.803	1.29	1.09	1.05
RERF-LC-KJ	1.01	0.908	0.954	1.02	0.814	1.11	1.03	0.859	1.01	0.994	1.11	0.996	0.92	1.36	1.25	0.835	0.76	0.761	0.688	0.689
LXF-289	1.01	0.946	0.973	1.02	0.846	1.06	0.889	0.931	0.831	0.346	1.04	0.993	0.94	0.748	0.301	1.12	0.983	1	1.02	0.899
PC-14	1.09	0.943	0.97	1.08	0.767	1.18	0.694	0.19	0.138	0.109	1.05	0.743	0.147	0.115	0.0976	1.15	0.882	0.913	0.837	0.862
NCI-H650	1.02	0.789	1.08	0.906	0.836	0.956	0.886	0.611	0.496	0.254	0.956	0.654	0.557	0.525	0.357	1.16	0.944	1.14	0.97	0.722
NCI-H1666	1.12	1.01	0.955	1.16	0.99	1.03	0.904	0.834	1.02	0.868	0.884	0.805	0.745	0.879	0.612	0.77	0.767	0.987	1.14	0.816
NCI-H2085	1.06	0.95	1.01	0.984	0.746	1	0.949	0.829	0.972	0.662	1.12	0.971	0.828	1.06	0.683	0.986	0.886	0.92	0.938	0.74
NCI-H1734	1.02	0.922	0.978	0.987	0.815	1.02	0.97	0.771	0.579	0.289	0.988	0.86	0.463	0.379	0.346	0.778	0.619	0.683	0.75	0.597
NCI-H2126	1.05	0.889	0.981	1	0.854	1.06	0.884	0.879	0.927	0.648	1.19	1.02	0.953	1.11	0.809	0.749	0.786	0.781	0.759	0.723
